Experimental findings from patent publication US20240132492A1, “PYRIDOPYRIMIDINE-BASED COMPOUND AND APPLICATION THEREOF” (JINAN UNIVERSITY, priority 2021, published 2024) are described below.

Holding throughout (assay type): cell-based
One assay addresses T1, AKT1 (Homo sapiens, UniProt P31749).
T1 construct: AKT1, AKT2, and AKT3 proteins in H1975-OR cells; endogenous in cells; host or cells: H1975-OR (osimertinib-resistant H1975)
As to the kind of experiment: Western Blot, degradation of AKT1 protein in H1975-OR cells. Particulars: 24 hours, maximum degradation rate; for Dmax at 1 µM: 1000 nM. Here is the method: (§1) Cell line: Non-small cell lung cancer H1975-OR cell line, which is an Osimertinib resistant H1975 cell line, and could be obtained through low dose gradual addition culture. Specific method: H1975 cells were spread in a 10 cm culture dish at a convergence rate of 60-70%, added 50 nM of Osimertinib to the culture medium. After the cell state stabilized, the concentration of Osimertinib was gradually double to 3 μM.
(§2) Conventional Western Blot (immunoblotting) was used for detection, as follows: a certain number of H1975-OR cells were planted on a 96 well plate, adherent cultured in an incubator overnight, and added a certain concentration of compound to act for 24 hours. 1×SDS lysis buffer with protease and phosphatase inhibitors was used to lyse cells. Cell lysates were separated by SDS-PAGE and transferred to PVDF membrane. Then, at room temperature, the PCDF membrane was taken out and immersed in a sealing solution (5% BSA TBS solution containing 0.5% Tween-20) for sealing treatment for 1 hour, and then incubated with a specific primary antibody at 4° C. overnight. The imprints were washed with TBST and incubated with horseradish peroxidase (HRP) labeled secondary antibodies at room temperature for 2 hours. Finally, ECL plus fluorescence detection reagent (Thermo Scientific, Waltham, MA) was used for protein development, and the Amersham Imager 600 system (GE, America) was used for photography. The detection results were processed using ImageJ software to obtain the grayscale value G (Density).

In the next assay the target is T2, AKT2 (Homo sapiens, UniProt P31751).
T2 construct: AKT1, AKT2, and AKT3 proteins in H1975-OR cells; endogenous in cells; host or cells: H1975-OR (osimertinib-resistant H1975)
As to the kind of experiment: Western Blot, degradation of AKT2 protein in H1975-OR cells. The note with it: 24 hours, maximum degradation rate; for Dmax at 1 µM: 1000 nM. Here is the method: as §1, §2
(In general: In western blotting, separated proteins are transferred to a membrane and probed.)

A further assay has as its system H1975. In words: CCK-8 tumor cell proliferation, H1975. Particulars: 72 hours. Here is the method: (§3) Tumor cells (see Table 2 to Table 5) were inoculated in 96-well plates in complete culture medium (2000-3000 cells/well). After overnight incubation, the compounds with different concentrations (0.000508 μM-10 μM) were used to treat the cells separately for 72 hours. CCK-8 (Cell Counting Kit 8, Dojindo Laboratories, Kumamoto, Japan) experiment was used to evaluate cell proliferation. GraphPad Prism 5.0 software (La Jolla, CA) was used to calculate the half-maximal inhibitory concentration (IC50) values by fitting the concentration response curve. Each IC50 value was represented as an average value±SD.

Another assay relates to H1975OR. In words: CCK-8 tumor cell proliferation, H1975OR. Particulars: H1975OR cells (Osimertinib resistant), 72 hours. Here is the method: as §1, §3
In another assay the target is AKT3 (Homo sapiens, UniProt Q9Y243). In words: Western Blot, degradation of AKT3 protein in H1975-OR cells. The arrangement: endogenous in cells; host or cells: H1975-OR (osimertinib-resistant H1975). The note with it: 24 hours, maximum degradation rate; for Dmax at 1 µM: 1000 nM. How it is done: as §1, §2
[1] abbreviates: Homo sapiens, NCI-H1975, H1975 cells.

Some results are limits rather than exact numbers.

T2 sequence (P31751 whole entry): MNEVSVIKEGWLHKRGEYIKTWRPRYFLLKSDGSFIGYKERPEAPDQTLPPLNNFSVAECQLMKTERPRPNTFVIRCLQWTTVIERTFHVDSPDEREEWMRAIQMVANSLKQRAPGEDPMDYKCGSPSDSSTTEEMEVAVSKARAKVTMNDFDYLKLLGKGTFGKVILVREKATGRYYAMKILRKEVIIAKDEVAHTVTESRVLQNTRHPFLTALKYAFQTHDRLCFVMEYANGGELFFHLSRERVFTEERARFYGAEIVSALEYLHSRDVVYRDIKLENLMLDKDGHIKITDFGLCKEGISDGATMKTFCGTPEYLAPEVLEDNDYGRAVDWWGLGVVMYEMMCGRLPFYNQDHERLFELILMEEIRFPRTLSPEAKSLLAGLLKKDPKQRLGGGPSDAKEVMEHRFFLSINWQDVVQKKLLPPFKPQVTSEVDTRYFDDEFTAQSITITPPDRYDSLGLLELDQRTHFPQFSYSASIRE
Chain of AKT3 (Q9Y243 whole entry): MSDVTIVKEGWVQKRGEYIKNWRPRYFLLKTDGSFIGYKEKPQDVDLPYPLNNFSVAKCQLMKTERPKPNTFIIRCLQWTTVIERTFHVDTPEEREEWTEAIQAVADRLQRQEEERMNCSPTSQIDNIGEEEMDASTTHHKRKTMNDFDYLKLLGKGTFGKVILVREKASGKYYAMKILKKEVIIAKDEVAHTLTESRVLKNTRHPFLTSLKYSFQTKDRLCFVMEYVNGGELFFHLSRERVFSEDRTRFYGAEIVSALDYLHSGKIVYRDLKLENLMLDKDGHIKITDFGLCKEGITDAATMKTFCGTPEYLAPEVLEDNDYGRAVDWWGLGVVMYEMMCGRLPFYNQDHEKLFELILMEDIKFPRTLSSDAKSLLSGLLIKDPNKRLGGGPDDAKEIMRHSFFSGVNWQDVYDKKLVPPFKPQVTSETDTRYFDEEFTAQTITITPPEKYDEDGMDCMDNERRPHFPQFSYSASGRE
T1 sequence (P31749 whole entry): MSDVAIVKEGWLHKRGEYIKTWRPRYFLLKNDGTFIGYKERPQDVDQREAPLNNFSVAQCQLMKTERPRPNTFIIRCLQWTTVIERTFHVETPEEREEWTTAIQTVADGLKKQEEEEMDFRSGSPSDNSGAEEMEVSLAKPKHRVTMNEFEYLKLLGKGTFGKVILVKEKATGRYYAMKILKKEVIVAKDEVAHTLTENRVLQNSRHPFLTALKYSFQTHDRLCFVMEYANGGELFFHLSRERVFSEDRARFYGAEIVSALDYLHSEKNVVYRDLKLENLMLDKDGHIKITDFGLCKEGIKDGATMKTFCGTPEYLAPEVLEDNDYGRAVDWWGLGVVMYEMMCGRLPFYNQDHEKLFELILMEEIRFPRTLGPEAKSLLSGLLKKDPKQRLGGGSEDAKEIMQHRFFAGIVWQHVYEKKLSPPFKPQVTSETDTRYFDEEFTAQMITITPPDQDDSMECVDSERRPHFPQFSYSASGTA

As for `COc1cc(N2CCN(CCCCCCCCNC(=O)C3CC3)CC2)ccc1Nc1ncc2c(C)cc(=O)n(-c3cccc(NC(=O)C4CC4)c3)c2n1` [ZX-HYT-62], the Dmax – broadly, the largest share of the target that was removed – at 1 µM was 28.4% on AKT1, 15.1% on AKT2 and 18.8% at AKT3. Further, the IC50 (as a rule, the concentration at which inhibition is half-maximal) with H1975 (setting [1]) was found to be 0.0551 ± 0.0232 µM; with H1975OR it was 0.0487 ± 0.004 µM.

Consider `COc1cc(N2CCN(CCCCCCCCCCCCNC(=O)CC34CC5CC(CC(C5)C3)C4)CC2)ccc1Nc1ncc2c(C)cc(=O)n(-c3cccc(NC4CNC4)c3)c2n1` [ZX-HYT-45, 2-((3R, 5R, 7R)-adamantan-1-yl)-N-(12-(4-(4-((8-(3-(azacyclobutane-3-ylamino)phenyl)-5-methyl-7-oxy-7,8-dihydropyridino [2,3-d]pyrimidin-2-yl)amino)-3-methoxyphenyl)piperazin-1-yl)dodecyl) acetamide], for which the results for the maximal degradation (Dmax) at 1 µM at AKT1, at AKT2 and at AKT3 were 32.8%, 17.6% and 29.1%, respectively. The IC50 with H1975 (setting [1]) came out at 2.4 ± 0.226 µM; in the assay on H1975OR, 2.35 ± 0.11 µM.

As to `COc1cc(N2CCN(CCCCCCCCCCCCNC(=O)CC34CC5CC(CC(C5)C3)C4)CC2)ccc1Nc1ncc2c(C)cc(=O)n(-c3cccc(NCC4CCC4)c3)c2n1` [ZX-HYT-39, 2-((3R, 5R, 7R)-adamantan-1-yl)-N-(12-(4-(4-((8-(3-((cyclobutylmethyl)amino)phenyl)-5-methyl-7)-oxo-7,8-dihydropyridino [2,3-d]pyrimidin-2-yl)amino)-3-methoxyphenyl)piperazin-1-yl) dodecyl) acetamide], the results for the Dmax at 1 µM at AKT1, on AKT2 and on AKT3 were 0%, 51% and 55.3%, respectively. In addition, the IC50 turned out to be 0.00919 ± 0.00567 µM with H1975 (setting [1]) and 0.0102 ± 0.004 µM in the assay with H1975OR.

As for `COc1cc(OCCOCCCCCCCCCCCCNC(=O)CC23CC4CC(CC(C4)C2)C3)ccc1Nc1ncc2c(C)cc(=O)n(-c3cccc(NC(=O)C4CC4)c3)c2n1` [ZX-HYT-27, N-(3-(2-(4-(2-((12-(2-(((3R, 5R, 7R)-adamantan-1-yl)acetylamino)dodecyl)oxy)ethoxy)-2-methoxyphenyl)amino)-5-methyl-7-oxypyridino [2,3-d]pyrimidin-8 (7H)-yl)phenyl) cyclopropaneformamide], the Dmax at 1 µM turned out to be 0% on AKT1, 30.2% on AKT2 and 76.3% on AKT3. The results for the IC50 in the assay on H1975 (setting [1]) and with H1975OR were 7.84 ± 1.35 µM and 1.67 ± 0.69 µM, respectively.

Regarding `CCC(=O)Nc1cccc(-n2c(=O)cc(C)c3cnc(Nc4ccc(N5CCN(CCCCCCCCNC(=O)CC67CC8CC(CC(C8)C6)C7)CC5)cc4OC)nc32)c1` [ZX-HYT-49, N-(3-(2-((4-(4-(8-(2-((3R, 5R, 7R)-adamantan-1-yl)acetylamino)octyl)piperazin-1-yl)-2-methoxyphenyl))amino)-5-methyl-7-oxypyridino [2,3-d]pyrimidin-8 (7H)-yl) phenyl) propionamide], the Dmax at 1 µM at AKT1 came out at 0%; on AKT2 it was 26.1%; on AKT3, 61.6%. In addition, the IC50 with H1975 (setting [1]) came out at 0.0958 ± 0.0126 µM; with H1975OR it was 0.0346 µM.

Turning to `COc1cc(N2CCN(CCCCCCCCCCCCNC(=O)CC34CC5CC(CC(C5)C3)C4)CC2)ccc1Nc1ncc2c(C)cc(=O)n([C@H]3CCCN(C(=O)C4CC4)C3)c2n1` [ZX-HYT-22], the Dmax at 1 µM at AKT1 was determined as 0%; at AKT2, 0%; on AKT3 it was 25%. Moreover, the results for the IC50 in the assay on H1975 (setting [1]) and with H1975OR were 0.014 µM and 0.00682 µM, respectively.

In the case of `COc1cc(N2CCN(CCCCCCCCNC(=O)CC34CC5CC(CC(C5)C3)C4)CC2)ccc1Nc1ncc2c(C)cc(=O)n(-c3cccc(NC(=O)C4CC4)c3)c2n1` [ZX-HYT-47, N-(3-(2-((4-(4-(8-(2-((3R, 5R, 7R)-adamantan-1-yl)acetylamino)octyl)piperazin-1-yl)-2-methoxyphenyl))amino)-5-methyl-7-oxypyridino [2,3-d]pyrimidin-8 (7H)-yl) phenyl) cyclopropane formamide], the results for the greatest degradation seen (Dmax) at 1 µM on AKT1, on AKT2 and at AKT3 were 0%, 0% and 67.5%, respectively. Further, the half-inhibitory concentration (IC50) in the assay with H1975 (setting [1]) was determined as 0.0365 ± 0.0012 µM; in the assay with H1975OR, 0.0224 ± 0.0127 µM.

On to `COc1cc(N2CCN(CCCCCCCCNC(=O)C34CC5CC(CC(C5)C3)C4)CC2)ccc1Nc1ncc2c(C)cc(=O)n(-c3cccc(NC(=O)C4CC4)c3)c2n1` [ZX-HYT-35, (3R,5R,7R)—N-(8-(4-(4-((8-(3-(cyclopropaneformamide)phenyl)-5-methyl-7-oxy-7,8-dihydropyridino [2,3-d-dipyrimidin-2-yl)amino)-3-methoxyphenyl)piperazin-1-yl)octyl)adamantan-1-carboxylamide], for which the Dmax at 1 µM on AKT1 is 42.2%; on AKT2 it was 39.1%; at AKT3, 43.4%. Moreover, the half-inhibitory concentration (IC50) came out at 2.59 ± 0.2 µM with H1975 (setting [1]) and 0.32 ± 0.04 µM with H1975OR.

In the case of “N-(3-(2-((4-(4-(12-((2-((3R, 5R, 7R)-adamantan-1-yl) ethyl) amino) dodecyl) piperazin-1-yl)-2-methoxyphenyl) amino)-5-methyl-7-oxypyrano [2,3-d] pyrimidin-8 (7H)-yl) phenyl) cyclopropane formamide [ZX-HYT-29]”, on AKT1, the “Dmax (%) at 1000 nM AKT1” value stood at 57.51%. Besides, at AKT2, the “Dmax (%) at 1000 nM AKT2” value turned out to be 36.43%. Also, the IC50 with H1975 (H1975 cells) worked out at 0.98 ± 0.21 µM; with H1975OR, 0.98 ± 0.25 µM. At AKT3, the “Dmax (%) at 1000 nM AKT3” value is recorded as 54.7%.

For the molecule `COc1cc(N2CCN(CCCCCCCCNC(=O)CC(C)(C)C)CC2)ccc1Nc1ncc2c(C)cc(=O)n(-c3cccc(NC(=O)C4CC4)c3)c2n1` [ZX-HYT-33], the Dmax at 1 µM turned out to be 0% on AKT1, 43.7% at AKT2 and 55.3% on AKT3. The IC50 is 2.31 ± 0.52 µM in the assay with H1975 (setting [1]) and 0.44 ± 0.14 µM in the assay on H1975OR.

As for `COc1cc(N2CCN(CCCCCCCCCCCCNC(=O)CC34CC5CC(CC(C5)C3)C4)CC2)ccc1Nc1ncc2c(C)cc(=O)n([C@H]3CCN(C(=O)C4CC4)C3)c2n1` [ZX-HYT-37], the maximal degradation (Dmax) at 1 µM at AKT1 is 0%; on AKT2 it was 0%; on AKT3, 17.5%. The IC50 in the assay with H1975 (setting [1]) stood at 4.15 ± 0.462 µM; in the assay on H1975OR, 6.31 ± 0.645 µM.

Take `CCCCCCCCN1CCN(c2ccc(Nc3ncc4c(C)cc(=O)n(-c5cccc(NC(=O)C6CC6)c5)c4n3)c(OC)c2)CC1` [ZX-HYT-30, N-(3-(2-((2-methoxy-4-(4-octylpiperazin-1-yl)phenyl)amino)-5-methyl-7-oxypyridino [2,3-d]pyrimidin-8 (7H)-yl)phenyl) cyclopropane formamide]: the Dmax at 1 µM at AKT1 is 40.5%; on AKT2, 37.1%; on AKT3 it was 51.9%. For the same molecule, the IC50 with H1975 (setting [1]) was over 10 µM; in the assay with H1975OR it was 8.84 ± 2.17 µM.

For the molecule `COc1cc(N2CCN(CCCCCCCCN)CC2)ccc1Nc1ncc2c(C)cc(=O)n(-c3cccc(NC(=O)C4CC4)c3)c2n1` [ZX-HYT-31], the Dmax at 1 µM at AKT1 is 0%; at AKT2, 30.6%; at AKT3, 55.5%. Moreover, the IC50 in the assay on H1975 (setting [1]) was 0.145 ± 0.101 µM; in the assay on H1975OR, 0.217 ± 0.0367 µM.

Take `COc1cc(N2CCN(CCCCCCCCNC(=O)C[C@]34CC5C[C@@](C)(C[C@@](C)(C5)C3)C4)CC2)ccc1Nc1ncc2c(C)cc(=O)n(-c3cccc(NC(=O)C4CC4)c3)c2n1` [ZX-HYT-59, N-(3-(2-((4-(4-(8-(2-((1S, 3R, 5S, 7R)-3,5-dimethyladamantan-1-yl)acetamido)octyl)piperazin-1-yl)-2-methoxyphenyl)amino)-5-methyl-7-oxypyridino [2,3-d]pyrimidin-8 (7H)-yl)phenyl) cyclopropanilamide]: the Dmax at 1 µM at AKT1 stood at 30.3%; at AKT2 it was 24.7%; on AKT3, 38.9%. The IC50 in the assay with H1975 (setting [1]) amounted to 0.121 ± 0.0449 µM; in the assay with H1975OR it was 0.0939 ± 0.004 µM.

Take `COc1cc(N2CCN(CCCCCCCCNC(=O)CC34CC5CC(CC(C5)C3)C4)CC2)ccc1Nc1ncc2c(C)cc(=O)n(-c3cccc(NC(=O)C(C)(C)C)c3)c2n1` [ZX-HYT-48, N-(3-(2-((4-(4-(8-(2-((3R, 5R, 7R)-adamantan-1-yl)acetylamino)octyl)piperazin-1-yl)-2-methoxyphenyl))amino)-5-methyl-7-oxypyridino [2,3-d]pyrimidin-8 (7H)-yl) phenyl) neopentanamide]: the Dmax at 1 µM was 0% on AKT1, 34.2% at AKT2 and 60.6% at AKT3. For the same molecule, the IC50 with H1975 (setting [1]) was 0.187 ± 0.0357 µM; in the assay on H1975OR it was 0.105 ± 0.052 µM.
